Assay: Pharmacokinetic study in rats, pulmonary insufflation versus intravenous injection
Type: in vivo
Details: male Sprague Dawley rats, single dose 0.8 mg/kg, samples 10-240 minutes; FIG. 5
Method: Pharmacokinetic studies in rats with Compound I crystalline composite (XC) dry powders-Insufflation studies were performed in rats to deliver doses of dry powders of Compound I, a protein kinase antagonist. The study was performed to determine the pharmacokinetics profile of compound I dry powders made by the process as described above following pulmonary insufflation, or intravenous injection of a single dose of the composition administered in solution to male Sprague Dawley (Charles River Laboratories) adult rats, weighing between 200 g and 250 g at the time of the study. Dry powder comprising 22.1 wt % actual drug content were used and tested at 1 mg/ml in solution to deliver a dose of 0.8 mg/kg to 18 rats in each study group. Rats acclimatized and anesthetized prior to experimentation. Lung and blood samples were taken from the rats at 10, 20, 30, 120, and 240 minutes, post drug administration.

## Cc1cccc(-n2ncc(C)c2-c2cc3cnccc3s2)n1 [compound I, 2 [4-methyl-1-(6-methylpyridin-2yl)-1H-pyrazol-5-yl]thieno-[3,2 c]pyridine]
  Lung content of compound I after insufflation versus IV injection: higher content of compound I was detected in rat lung after insufflation versus IV injection
